These results are taken from patent publication US12552799B2, “Triazolone compounds” (Nxera Pharma UK Limited, priority 2020, dated 2026).

The target in assay [1] is human adenosine A1 receptor (Homo sapiens (Human), UniProt P30542). The assay is described as follows: Adenosine receptor binding assay, A1 ([3H]DPCPX inhibition binding on membranes). To be noted: 1 nM [3H]DPCPX, 25° C., 1 h, Ki from IC50 by Cheng-Prusoff. On the procedure: (§1) Inhibition binding assays were performed using 0.2 μg of membranes prepared from HEK293 cells infected with BacMam human adenosine A2A receptor or 1.4 μg of membranes prepared from HEK293 cells infected with BacMam human adenosine A1 receptor. Membranes were incubated in 50 mM Tris-HCl (HEK293-hA2A; pH 7.4) or 50 mM Tris-HCl, 100 mM NaCl, 10 mM MgCl2 (CHO-hA1; pH 7.4) in the presence of varying concentrations of test compound and 1 nM [^3H]ZM241385 (HEK293-hA2A) or [^3H]DPCPX (CHO-hA1) at 25° C. for 1 h. The assay was then terminated by rapid filtration onto GF/B grade Unifilter plates using a TomTec cell harvester, followed by 5×0.5 ml washes with ddH2O. Nonspecific binding was defined in the presence of 1 μM CGS15943 (HEK293-hA2A) or 1 μM DPCPX (CHO-hA1). Bound radioactivity was determined by liquid scintillation counting and inhibition curves were analysed using a four-parameter logistic equation. IC50 values were converted to Ki values with the Cheng-Prusoff equation using a KD value derived from saturation binding studies.
Sequence of human adenosine A1 receptor (P30542 whole entry): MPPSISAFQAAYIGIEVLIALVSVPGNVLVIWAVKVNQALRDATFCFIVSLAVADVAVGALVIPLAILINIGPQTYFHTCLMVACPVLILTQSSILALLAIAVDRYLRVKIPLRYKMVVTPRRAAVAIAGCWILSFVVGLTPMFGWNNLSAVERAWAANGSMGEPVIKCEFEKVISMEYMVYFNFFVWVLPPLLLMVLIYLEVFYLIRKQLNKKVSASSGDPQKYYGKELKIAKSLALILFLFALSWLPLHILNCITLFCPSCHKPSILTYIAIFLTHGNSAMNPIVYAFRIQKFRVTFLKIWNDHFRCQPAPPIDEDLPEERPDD

Assay [2] concerns the target human adenosine A2A receptor (Homo sapiens (Human), UniProt P29274). Description: Adenosine receptor binding assay, A2A ([3H]ZM241385 inhibition binding on HEK293 membranes). To be noted: 1 nM [3H]ZM241385, 25° C., 1 h, Ki from IC50 by Cheng-Prusoff. The method, then: as §1
In assay [3] the target is human CB-1 cannabinoid receptor (Homo sapiens (Human), UniProt P21554). Description: CB-1 receptor radioligand binding assay ([3H]CP 55940, transfected CHO cell membranes). To be noted: 0.5 nM [3H]CP 55940, 120 min at 37° C., agonist site. The method, then: Nonspecific binding is determined in the presence of 10 μM WIN 55212-2.
Sequence of human CB-1 cannabinoid receptor (P21554 whole entry): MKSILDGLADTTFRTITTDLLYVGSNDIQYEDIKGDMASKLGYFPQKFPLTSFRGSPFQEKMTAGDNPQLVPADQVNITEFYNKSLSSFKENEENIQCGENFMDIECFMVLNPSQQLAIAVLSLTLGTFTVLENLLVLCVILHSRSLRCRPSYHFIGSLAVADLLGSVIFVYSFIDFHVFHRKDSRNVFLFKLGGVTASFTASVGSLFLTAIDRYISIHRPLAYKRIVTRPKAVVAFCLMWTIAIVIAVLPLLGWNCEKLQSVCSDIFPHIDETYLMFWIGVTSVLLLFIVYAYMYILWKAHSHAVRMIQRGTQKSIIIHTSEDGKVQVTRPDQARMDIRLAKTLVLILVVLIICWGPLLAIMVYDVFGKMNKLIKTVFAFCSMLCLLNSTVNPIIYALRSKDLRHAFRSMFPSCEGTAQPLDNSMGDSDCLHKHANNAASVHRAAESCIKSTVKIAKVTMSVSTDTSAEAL
Following incubation, the samples are filtered rapidly under vacuum through glass fiber filters (GF/B, Packard) presoaked with 0.3% PEI and rinsed several times with an ice-cold buffer containing 50 mM Tris-HCl (pH 7.4) and 0.5% BSA using a 96-sample cell harvester (Unifilter, Packard). The filters are dried then counted for radioactivity in a scintillation counter (Topcount, Packard) using a scintillation cocktail (Microscint O, Packard).
The standard reference compound is CP 55940 which is tested in each experiment at several concentrations to obtain a competition curve from which its IC50 is calculated.
In Table 5, blank entries for Ki indicate that the observed binding was too weak to measure a Ki value.

For assay [4], the target named is human CB1 receptor (Homo sapiens (Human), UniProt P21554). Description: CB1 receptor antagonism, agonist-induced cAMP modulation (HTRF) in transfected CHO cells. It counts as cell-based. To be noted: inhibition of control response to 3 nM CP 55940, cAMP HTRF, read-out: Antag IC50. The method, then: Receptor antagonism: Evaluation of the antagonist activity of compounds at the human CB1 receptor expressed in transfected CHO cells, determined by measuring their effects on agonist-induced cAMP modulation using the HTRF detection method.
Sequence of human CB1 receptor (P21554 whole entry): as above
The cells are suspended in HBSS buffer (Invitrogen) complemented with 20 mM HEPES (pH 7.4), then distributed in microplates at a density of 5.10^3 cells/well and preincubated for 5 min at room temperature in the presence of either of the following: HBSS (stimulated control), the reference antagonist AM 281 at 3 μM (basal control) or various concentrations (IC50 determination), or the test compounds.
Thereafter, the reference agonist CP 55940 and the adenylyl cyclase activator NKH 477 are added at respective final concentrations of 3 nM and 3 μM.
For basal control measurements, CP 55940 is omitted from the wells containing 3 μM AM 281.
Following 20 min incubation at 37° C., the cells are lysed and the fluorescence acceptor (D2-labeled cAMP) and fluorescence donor (anti-cAMP antibody labeled with europium cryptate) are added.
After 60 min at room temperature, the fluorescence transfer is measured at λex=337 nm and λem=620 and 665 nm using a microplate reader (Rubystar, BMG). The cAMP concentration is determined by dividing the signal measured at 665 nm by that measured at 620 nm (ratio).
The results are expressed as a percent inhibition of the control response to 3 nM CP 55940.
The standard reference antagonist is AM 281, which is tested in each experiment at several concentrations to generate a concentration-response curve from which its IC50 value is calculated.

Sequence of human adenosine A2A receptor (P29274 whole entry): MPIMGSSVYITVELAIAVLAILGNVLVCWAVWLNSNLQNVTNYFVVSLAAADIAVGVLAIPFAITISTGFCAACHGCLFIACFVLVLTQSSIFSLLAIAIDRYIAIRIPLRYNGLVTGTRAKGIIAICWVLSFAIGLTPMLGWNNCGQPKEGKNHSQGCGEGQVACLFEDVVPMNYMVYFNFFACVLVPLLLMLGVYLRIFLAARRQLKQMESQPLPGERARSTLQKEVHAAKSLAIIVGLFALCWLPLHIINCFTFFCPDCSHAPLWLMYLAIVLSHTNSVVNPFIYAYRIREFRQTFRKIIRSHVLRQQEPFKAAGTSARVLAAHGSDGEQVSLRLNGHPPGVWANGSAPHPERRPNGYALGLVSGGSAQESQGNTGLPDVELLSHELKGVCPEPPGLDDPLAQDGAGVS

As for `C[C@@H]1CC(c2c(-c3ccccc3)nc(N)n3c(=O)n(CCC(F)(F)F)nc23)=C[C@H](C)O1` (relative stereo) [Example 2-1, 5-amino-8-[(cis)-2,6-dimethyl-3,6-dihydro-2H-pyran-4-yl]-7-phenyl-2-(3,3,3-trifluoropropyl)-[1,2,4]triazolo[4,3-c]pyrimidin-3-one], the “A1 pKi” value in assay [1] came out at 6.3. Also, in assay [2], the “A2A pKi” value was 8.6. The same compound came in with a Ki in assay [3] of 31.5 µM. Besides, in assay [4], the IC50 turned out to be 72.2 µM.

`C[C@@H]1CN(c2c(-c3ccccc3)nc(N)n3c(=O)n(CCC(F)(F)F)nc23)C[C@H](C)O1` [Example 1-1, 5-amino-8-[(cis)-2,6-dimethylmorpholin-4-yl]-7-phenyl-2-(3,3,3-trifluoropropyl)-[1,2,4]triazolo[4,3-c]pyrimidin-3-one]: the “A1 pKi” value in assay [1] was less than 5.4. Moreover, in assay [2], the “A2A pKi” value is 8.3. In addition, the Ki in assay [3] came out at 33.9 µM. Moreover, in assay [4], the IC50 was 14.7 µM.

Take `C[C@@H]1CN(c2c(-c3ccccc3)nc(N)n3c(=O)n(Cc4ccc(F)cn4)nc23)C[C@H](C)O1` [Example 1-14, 5-amino-8-[(cis)-2,6-dimethylmorpholin-4-yl]-2-[(5-fluoro-2-pyridyl)methyl]-7-phenyl-[1,2,4]triazolo[4,3-c]pyrimidin-3-one]: in assay [1], the “A1 pKi” value is 5.9. Moreover, the “A2A pKi” value in assay [2] came out at 7.9. The compound further came in with a Ki in assay [3] of 9.5 µM. For the same compound, in assay [4], the IC50 came out at 7 µM.

Regarding `Cc1cc(-c2c(-c3ccc(F)cc3)nc(N)n3c(=O)n(CCC(F)(F)F)nc23)cc2ocnc12` [Example 4-1, 5-amino-7-(4-fluorophenyl)-8-(4-methyl-1,3-benzoxazol-6-yl)-2-(3,3,3-trifluoropropyl)-[1,2,4]triazolo[4,3-c]pyrimidin-3-one], the “A1 pKi” value in assay [1] was found to be 6.5. In assay [2], the “A2A pKi” value was found to be 9.3. In assay [3], this compound returned a Ki of 3.7 µM. Also, the IC50 in assay [4] was determined as 2.4 µM.

Consider `Cc1cc(-c2c(-c3ccccc3)nc(N)n3c(=O)n(Cc4ccc(F)cn4)nc23)cc2cn[nH]c12` [Example 4-4, 5-amino-2-[(5-fluoro-2-pyridyl)methyl]-8-(7-methyl-1H-indazol-5-yl)-7-phenyl-[1,2,4]triazolo[4,3-c]pyrimidin-3-one], for which the Ki in assay [1] (read-out: A1 pKi (converted)) was 0.0251 µM; in assay [2] (read-out: A2A pKi (converted)), 0.000251 µM; in assay [3] it was 5.5 µM. Also, in assay [4], the IC50 is 1.3 µM.

Consider `Cc1cc(-c2c(-c3ccccc3)nc(N)n3c(=O)n(Cc4ccc(F)cn4)nc23)cc2nc[nH]c12` [Example 4-5, 5-amino-2-[(5-fluoro-2-pyridyl)methyl]-8-(7-methyl-1H-benzimidazol-5-yl)-7-phenyl-[1,2,4]triazolo[4,3-c]pyrimidin-3-one], for which, in assay [1], the “A1 pKi” value was 7.0. In addition, the “A2A pKi” value in assay [2] came out at 9.0. Also, the Ki in assay [3] came to 24.4 µM. In addition, the IC50 in assay [4] came to 68.6 µM.

`Cc1ocnc1Cn1nc2c(-c3cc(C)c4[nH]ncc4c3)c(-c3ccccc3)nc(N)n2c1=O` [Example 4-9, 5-amino-8-(7-methyl-1H-indazol-5-yl)-2-[(5-methyloxazol-4-yl)methyl]-7-phenyl-[1,2,4]triazolo[4,3-c]pyrimidin-3-one]: in assay [1], the “A1 pKi” value amounted to 8.8. The “A2A pKi” value in assay [2] was 10.1. In assay [3], this compound registered a Ki of 39.1 µM. In addition, the IC50 in assay [4] was 15.5 µM.

Consider `Cc1ocnc1Cn1nc2c(-c3cc(Cl)c4[nH]ncc4c3)c(-c3ccccc3)nc(N)n2c1=O` [Example 4-11, 5-amino-8-(7-chloro-1H-indazol-5-yl)-2-[(5-methyloxazol-4-yl)methyl]-7-phenyl-[1,2,4]triazolo[4,3-c]pyrimidin-3-one], for which, in assay [1], the “A1 pKi” value was 8.7. For the same compound, the “A2A pKi” value in assay [2] is given as 9.8. Moreover, the Ki in assay [3] was 2.5 µM. In addition, the IC50 in assay [4] is 2.6 µM.

For `Cc1ocnc1Cn1nc2c(-c3cc(C)c4[nH]ccc4c3)c(-c3ccccc3)nc(N)n2c1=O` [Example 4-12, 5-amino-8-(7-methyl-1H-indol-5-yl)-2-[(5-methyloxazol-4-yl)methyl]-7-phenyl-[1,2,4]triazolo[4,3-c]pyrimidin-3-one], the “A1 pKi” value in assay [1] came to 7.2. In assay [2], the “A2A pKi” value is 9.3. The Ki in assay [3] is 39.6 µM. The IC50 in assay [4] was 22.5 µM.
